Assay results from the supplement of paper PMC13380429.

Assays:
Details in all cases: 72 h
Vero E6 [1] = experiment: relative viability EC50 (midpoint between 100% and the lowest measured viability); higher = less toxic
HepG2 [2] = experiment: as above
Caco-2 [3] = experiment: as above
U2OS [4] = experiment: as above
Calu-3 [5] = experiment: cell viability relative to DMSO; higher = less toxic
Vero E6 [6] = experiment: as above
HepG2 [7] = experiment: as above
Caco-2 [8] = experiment: as above
U2OS [9] = experiment: as above
Calu-3 [10] = experiment: drug sensitivity score (DSS) for viability; higher = more toxic; extreme values may be limits of the assay
Vero E6 [11] = experiment: as above
HepG2 [12] = experiment: as above
Caco-2 [13] = experiment: as above
U2OS [14] = experiment: as above
Calu-3 [15] = experiment: relative viability EC50 (midpoint between 100% and the lowest measured viability); higher = less toxic

SMILES | relative viability EC50 (Vero E6 [1]) [µM] | relative viability EC50 (HepG2 [2]) [µM] | relative viability EC50 (Caco-2 [3]) [µM] | relative viability EC50 (U2OS [4]) [µM] | cell viability (Calu-3 [5]; 1 nM) [%] | cell viability (Calu-3 [5]; 10 nM) [%] | cell viability (Calu-3 [5]; 100 nM) [%] | cell viability (Calu-3 [5]; 1000 nM) [%] | cell viability (Calu-3 [5]; 10000 nM) [%] | cell viability (Vero E6 [6]; 1 nM) [%] | cell viability (Vero E6 [6]; 10 nM) [%] | cell viability (Vero E6 [6]; 100 nM) [%] | cell viability (Vero E6 [6]; 1000 nM) [%] | cell viability (Vero E6 [6]; 10000 nM) [%] | cell viability (HepG2 [7]; 1 nM) [%] | cell viability (HepG2 [7]; 10 nM) [%] | cell viability (HepG2 [7]; 100 nM) [%] | cell viability (HepG2 [7]; 1000 nM) [%] | cell viability (HepG2 [7]; 10000 nM) [%] | cell viability (Caco-2 [8]; 1 nM) [%] | cell viability (Caco-2 [8]; 10 nM) [%] | cell viability (Caco-2 [8]; 100 nM) [%] | cell viability (Caco-2 [8]; 1000 nM) [%] | cell viability (Caco-2 [8]; 10000 nM) [%] | cell viability (U2OS [9]; 1 nM) [%] | cell viability (U2OS [9]; 10 nM) [%] | cell viability (U2OS [9]; 100 nM) [%] | cell viability (U2OS [9]; 1000 nM) [%] | cell viability (U2OS [9]; 10000 nM) [%] | drug sensitivity score (Calu-3 [10]) | drug sensitivity score (Vero E6 [11]) | drug sensitivity score (HepG2 [12]) | drug sensitivity score (Caco-2 [13]) | drug sensitivity score (U2OS [14]) | relative viability EC50 (Calu-3 [15]) [µM]
CC(C)(C)n1nc(-c2cccc3ccccc23)c2c(N)ncnc21 [1-naphthyl-PP1] | > 10 | > 10 | > 10 | > 10 | 91.6 | 104 | 98.4 | 100 | 73 | 107 | 99 | 103 | 110 | 78.6 | 115 | 115 | 95.6 | 105 | 82.8 | 104 | 93.1 | 98.6 | 101 | 86.1 | 100 | 96.4 | 109 | 94.4 | 75.6 | 1.1 | 0.4 | 0.2 | 0.1 | 1.7 | 
NCCCCN [putrescine] | > 10 | > 10 | > 10 | > 10 |  |  |  |  |  | 104 | 112 | 100 | 98.1 | 90.4 | 110 | 101 | 110 | 97.3 | 93 | 118 | 102 | 102 | 89 | 93.1 | 99.2 | 97.1 | 97.6 | 93.6 | 96.7 |  | 0 | 0 | 0.2 | 0 | 
NCc1ccccc1CC(=O)N[C@@H]1C(=O)N2C(C(=O)O)=C(CSc3nnnn3CC(=O)O)CS[C@H]12 [ceforanide] | > 10 | > 10 | > 10 | > 10 |  |  |  |  |  | 97.3 | 98 | 96.8 | 93.8 | 103 | 99.5 | 106 | 109 | 98 | 106 | 88.4 | 92.9 | 102 | 99.3 | 100 | 96.3 | 97.3 | 100 | 102 | 103 |  | 0 | 0 | 0 | 0 | 
Cc1cccc(NC(=O)N[C@@H]2N=C(c3ccccc3)c3ccccc3N(C)C2=O)c1 | > 10 | > 10 | > 10 |  |  |  |  |  |  | 111 | 102 | 109 | 101 | 93.6 | 111 | 109 | 110 | 106 | 92.5 | 105 | 106 | 100 | 110 | 97.2 |  |  |  |  |  |  | 0 | 0 | 0 |  | 
O=C(CC1NCCCC1O)Cn1cnc2cc(Br)c(Cl)cc2c1=O (stereo not drawn) [halofuginone] | 0.0842 | 0.0439 | 0.183 | 0.678 |  |  |  |  |  | 99.7 | 100 | 42 | 11.4 | 0 | 102 | 88.9 | 24.1 | 2.9 | 0.6 | 95 | 107 | 81.7 | 28.6 | 25.1 | 98.9 | 101 | 98.1 | 32.2 | 1.9 |  | 24.5 | 27.9 | 15.7 | 13.4 | 
COc1ccc2c(c1)C=C1Cn3c-2c(C2CCCCC2)c2ccc(cc23)C(=O)NS(=O)(=O)N(C)CCOCCN(C)C1=O | > 10 | > 10 | > 10 | > 10 |  |  |  |  |  | 101 | 97.3 | 96.3 | 102 | 95.3 | 97.3 | 93.5 | 106 | 97 | 105 | 93.7 | 91.1 | 99 | 102 | 94.2 | 102 | 100 | 95.8 | 96.5 | 95.3 |  | 0 | 0 | 0 | 0 | 
N#Cc1c(N)nc(SCC(N)=O)c(C#N)c1-c1ccc(OCC2CC2)cc1 [BAY-60-6583] | > 10 | > 10 | > 10 | > 10 |  |  |  |  |  | 99.4 | 94.7 | 93.3 | 96.6 | 93.7 | 102 | 98.1 | 101 | 102 | 92.6 | 104 | 102 | 102 | 95.9 | 99.1 | 106 | 100 | 101 | 98.7 | 99.4 |  | 0 | 0 | 0 | 0 | 
CCN(CCCc1ccccc1)CCCc1ccccc1 [alverine] | > 10 | > 10 | > 10 | > 10 |  |  |  |  |  | 97.2 | 93.4 | 100 | 97.9 | 100 | 107 | 87.3 | 96.7 | 98.1 | 76.2 | 101 | 93.6 | 99.2 | 97.8 | 94.8 | 102 | 100 | 101 | 97.8 | 102 |  | 0 | 1.1 | 0 | 0 | 
O=C(O)Cc1sc(-c2ccccc2)nc1-c1ccc(Cl)cc1 [fentiazac] | > 10 | > 10 | > 10 | > 10 |  |  |  |  |  | 99.3 | 101 | 96 | 99.7 | 92.2 | 95.3 | 103 | 97.6 | 103 | 94.9 | 100 | 98.9 | 92.6 | 97.6 | 95.3 | 99 | 98.7 | 95.2 | 93.9 | 92.4 |  | 0 | 0 | 0 | 0 | 
COc1cc2c(cc1F)C(c1ccccc1Cl)=Nc1c(n[nH]c1C)N2 [RG1530] | > 10 |  | > 10 |  | 111 | 100 | 98.7 | 90.5 | 52.8 | 101 | 99 | 99.6 | 92.5 | 82.1 | 98.5 | 98.5 | 93.9 | 63.2 | 77.6 | 94.8 | 90.8 | 89.1 | 81.4 | 76.1 | 101 | 95.8 | 99.5 | 85.8 | 68.6 | 4 | 1.1 | 7.5 | 3.5 | 3.1 | 
O=C(O)c1c(Sc2ccccc2)c2cc(Cl)ccc2n1Cc1ccc(Cl)cc1 [nTZDpa] | > 10 | > 10 | > 10 | > 10 |  |  |  |  |  | 99.6 | 96 | 99.5 | 95.4 | 89.8 | 96.9 | 92.1 | 96.8 | 97.3 | 90.7 | 97.1 | 97 | 105 | 96.6 | 90.4 | 96.6 | 101 | 92.1 | 96.2 | 101 |  | 0 | 0 | 0 | 0 | 
CC(=O)NC[C@H]1CN(c2ccc(N3CCN(C(=O)CO)CC3)c(F)c2)C(=O)O1 [eperezolid] | > 10 | > 10 | > 10 | > 10 |  |  |  |  |  | 96.3 | 99.3 | 97.5 | 97.1 | 93.5 | 99.1 | 98.7 | 89.1 | 88.2 | 81.1 | 98.6 | 96.9 | 102 | 101 | 102 | 105 | 99.4 | 99.3 | 96.4 | 98.6 |  | 0 | 1.7 | 0 | 0 | 
Fc1ccc(Cn2c(NC3CCNCC3)nc3ccccc32)cc1 [tecastemizole] | > 10 | > 10 |  | > 10 | 90.7 | 99.2 | 107 | 99.5 | 102 | 104 | 95.6 | 101 | 90 | 98.9 | 106 | 96.6 | 114 | 83.9 | 86.2 | 97.8 | 98.1 | 99 | 106 | 73.3 | 95 | 98 | 96.9 | 98.2 | 103 | 0 | 0 | 1.4 | 0.8 | 0 | > 10
